Source: patent US20240043386A1, “Modulators of the Cystic Fibrosis Transmembrane Conductance Regulator Protein and Methods of Use” (AbbVie Global Enterprises Ltd., priority 2021, published 2024)
Read-outs that look alike come from different tables or passages of the source.

What was measured:
F508del/F508del CFTR = molecular target: T1, F508del/F508del CFTR (Homo sapiens, UniProt P13569, DEL508-508); assay: Trans-Epithelial Current Clamp (TECC) assay using primary human bronchial epithelial cells; type: cell-based; details: for Emax (% Dual): maximum percent activity relative to positive control (co-corrector 0.15 μM + potentiator 0.45 μM = 100%), primary hBE cells F508del/F508del; for EC50: primary hBE cells homozygous F508del/F508del, test C2 corrector with co-corrector and potentiator, 18-24 hours at 37° C., equivalent CFTR current (IEQ)/AUC
T1 construct: cells isolated from CF patients with the homozygous mutation; endogenous in cells; host or cells: primary human bronchial epithelial (hBE) cells from CF patients homozygous for F508del
T1 sequence (P13569 with tags, fused parts or gaps DEL508-508): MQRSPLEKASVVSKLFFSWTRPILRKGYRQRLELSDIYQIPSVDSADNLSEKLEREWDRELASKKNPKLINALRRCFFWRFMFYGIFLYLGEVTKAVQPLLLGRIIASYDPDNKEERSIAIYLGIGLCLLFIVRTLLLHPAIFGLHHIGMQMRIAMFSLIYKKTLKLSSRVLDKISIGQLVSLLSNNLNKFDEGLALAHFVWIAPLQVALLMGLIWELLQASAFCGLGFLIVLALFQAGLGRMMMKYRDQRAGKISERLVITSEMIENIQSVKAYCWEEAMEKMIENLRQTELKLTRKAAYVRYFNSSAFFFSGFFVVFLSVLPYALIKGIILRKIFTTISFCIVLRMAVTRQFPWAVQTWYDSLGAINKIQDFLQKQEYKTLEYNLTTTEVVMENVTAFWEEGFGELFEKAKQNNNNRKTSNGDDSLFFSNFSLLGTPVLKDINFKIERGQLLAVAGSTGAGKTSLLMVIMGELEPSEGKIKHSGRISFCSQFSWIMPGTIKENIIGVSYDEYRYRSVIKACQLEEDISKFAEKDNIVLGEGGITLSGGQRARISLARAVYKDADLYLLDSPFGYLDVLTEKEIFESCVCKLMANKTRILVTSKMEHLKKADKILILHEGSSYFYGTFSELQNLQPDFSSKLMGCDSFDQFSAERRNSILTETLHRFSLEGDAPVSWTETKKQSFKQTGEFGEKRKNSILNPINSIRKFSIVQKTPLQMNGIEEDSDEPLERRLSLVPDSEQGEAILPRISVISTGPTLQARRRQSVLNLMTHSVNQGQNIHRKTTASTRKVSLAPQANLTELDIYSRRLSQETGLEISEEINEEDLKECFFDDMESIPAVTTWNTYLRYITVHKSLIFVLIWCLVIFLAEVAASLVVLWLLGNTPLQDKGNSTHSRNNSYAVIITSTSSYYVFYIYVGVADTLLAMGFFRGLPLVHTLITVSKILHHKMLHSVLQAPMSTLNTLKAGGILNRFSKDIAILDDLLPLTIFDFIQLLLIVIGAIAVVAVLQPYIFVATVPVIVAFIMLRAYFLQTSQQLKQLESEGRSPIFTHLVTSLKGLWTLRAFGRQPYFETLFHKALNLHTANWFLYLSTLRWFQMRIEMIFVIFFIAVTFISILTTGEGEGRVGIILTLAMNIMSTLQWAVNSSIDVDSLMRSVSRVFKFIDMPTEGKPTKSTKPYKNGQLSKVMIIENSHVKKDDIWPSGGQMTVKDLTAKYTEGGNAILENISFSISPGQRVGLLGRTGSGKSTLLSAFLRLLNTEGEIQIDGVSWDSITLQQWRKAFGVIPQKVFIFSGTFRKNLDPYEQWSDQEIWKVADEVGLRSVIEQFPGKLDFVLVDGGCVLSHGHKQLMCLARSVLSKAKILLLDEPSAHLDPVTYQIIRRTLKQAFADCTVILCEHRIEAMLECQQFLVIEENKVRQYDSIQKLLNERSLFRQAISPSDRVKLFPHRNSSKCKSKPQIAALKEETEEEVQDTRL
Text: A cell-based assay was developed using the primary human bronchial epithelial cells (hBE cells) with F508del/F508del CFTR and other mutations.
Primary human bronchial epithelial (hBE) cells from CFTR patients with homozygous F508del/F508del mutation were expanded from 1×10^6 to 250×10^6 cells (Neuberger, T et al., 2011, Methods Mol Biol 741:39-54). For this purpose, cells isolated from CF patients with the homozygous mutation, procured from the CF center tissue procurement and cell culture core at the Marsico Lung Institute at UNC (Randell), the Cystic Fibrosis translational research center at McGill University (University), and Rosalind Franklin University Medical School (RFUMS) were seeded onto 24 well Corning (Cat #3378) filter plates that were coated with 3T3 conditioned media and grown at an air-liquid interface for 35 days using an Ultroser® G supplemented differentiation media. All the primary human bronchial epithelial cells were collected in accordance with institutional review board approval protocols. Apical surface mucus was removed 72 hours before the experiment by incubating the apical surface of the cells for 30 minutes with 3 mM dithiothreitol (DTT) prepared in Dulbecco's phosphate buffered saline (DPBS) with Ca^2+ and Mg^2+. This was followed with aspiration of the mucus from the apical surface along with DPBS. The apical surface was re-washed with phosphate buffered saline (PBS) incubated for 30 minutes followed with aspiration. These hBE cells were then incubated with the desired concentrations of the test C2 corrector compounds along with co-corrector, 4-[(2R,4R)-4-({[1-(2,2-difluoro-1,3-benzodioxol-5-yl)cyclopropyl]carbonyl}amino)-7-(difluoromethoxy)-3,4-dihydro-2H-chromen-2-yl]benzoic acid and potentiator, (5-{3-amino-5-[4-(trifluoromethoxy)benzene-1-sulfonyl]pyridin-2-yl}-1,3,4-oxadiazol-2-yl)methanol, for 18-24 hours at 37° C., 5% CO2. The desired concentrations of the correctors and potentiator compounds were prepared from the 10 mM stocks in differentiation media and were always applied on the basolateral side of the epithelial cells. We also used an assay format where a fixed concentration of potentiator was added chronically along with the corrector compounds. This chronic treatment with the potentiator helped eliminate any interaction that might happen with CFTR modulators (correctors and potentiators) and thereby determined the true efficacy of the modulator combinations reflective of clinical relevance.
The assay uses a Transepithelial Current Clamp (TECC) (Vu, C B et al., 2017; J Med Chem 60:458-473) instrument that can measure the functionality of the mutated channel by measuring the equivalent CFTR current (IEQ) generated by the polarized primary epithelial cells. We used a TECC-24 with a 24-channel electrode manifold allowing for the simultaneous measurement of the transepithelial voltage, VT, and transepithelial resistance, RT, under current clamp conditions, from 24 filters using a 24 well Costar filter plate. The design of the filters in the 24 well filter plates was exactly the same as the design of an individual Transwell filter used in the classical Ussing Chamber with a surface area of 0.33 cm^2. Each measured VT values were corrected for the electrode offset potential measured using buffer alone in a separate plate, and each measured RT values were then corrected for the combined solution series and empty filter resistances. The corrected VT and RT values were then used to calculate the equivalent current, IEQ using Ohm's law (IEQ=VT/RT). The area under the curve (AUC) for the time period between the forskolin peak IEQ response and at the time of bumetanide addition was also calculated using a one-third trapezoid method, in addition to calculating the IEQ. The assay was run in a 24-well format and all 24-wells were measured at the same time point giving a higher throughput for this assay. […]

F508delCFTR = molecular target: T2, F508delCFTR (Homo sapiens, UniProt P13569, DEL508-508); assay: Cell Surface Expression-Horse Radish Peroxidase (CSE-HRP) assay in CFBE41o-F508delCFTR-HRP cells; type: cell-based; details: for EC50: CFBE41o-F508delCFTR-HRP cells, 18-24 hours at 33° C., luminescence; for Maximum % activity (without co-corrector): normalized to on-plate positive control corrector (2 μM)
T2 construct: expressed in transfected cells; host or cells: CFBE41o- human lung-derived epithelial cell line, doxycycline-inducible expression
T2 sequence (P13569 with tags, fused parts or gaps DEL508-508): as above
Procedure: A cellular assay for measuring the F508delCFTR cell surface expression after correction with test compounds either without or with a co-corrector (2 μM of 3-[(2R,4R)-4-({[1-(2,2-difluoro-1,3-benzodioxol-5-yl)cyclopropyl]carbonyl}amino)-7-methoxy-3,4-dihydro-2H-chromen-2-yl]benzoic acid), was developed in human lung derived epithelial cell line (CFBE4lo-) (Veit G et al, (2012) Mol Biol Cell. 23(21): 4188-4202). The development was achieved by expressing the F508delCFTR mutation along with a horseradish peroxidase (HRP) in the fourth exofacial loop, and then measuring the HRP activity using luminescence readout from these cells, CFBE4lo-F508delCFTR-HRP, that were incubated overnight with the test corrector compounds, either without or with the co-corrector. For this primary assay, the CFBE4lo-F508delCFTR-HRP cells were plated in 384-well plates (Greiner Bio-one; Cat 781080) at 4,000 cells/well along with 0.5 μg/mL doxycycline to induce the F508delCFTR-RP expression and further incubated at 37° C., 5% CO2 for 68-72 hours. The test compounds were then added either without or with a co-corrector at the required concentrations and further incubated for 18-24 hours at 33° C. The highest concentration tested was 20 μM or 30 μM (GI-1 to GIII-36) with an 8-point concentration response curve using a 3-fold dilution in both the test compound without or with the co-corrector. Three replicate plates were run to determine one EC50. All plates contained negative controls (dimethyl sulfoxide, DMSO) and positive control (2 μM or 3 μM (GI-1 to GIII-36) of 3-[(2R,4R)-4-({[1-(2,2-difluoro-1,3-benzodioxol-5-yl)cyclopropyl]carbonyl}amino)-7-methoxy-3,4-dihydro-2H-chromen-2-yl]benzoic acid) as well as on-plate concentration response of the positive control. Post incubation, the plates were washed 5× times with Dulbecco's phosphate buffered saline (DPBS), followed by the addition of the HRP substrate, luminol (50 μL), and measuring the HRP activity using luminescence readout on EnVision® Multilabel Plate Reader (Perkin Elmer; product number 2104-0010). The raw counts from the experiment were analyzed using Accelrys® Assay Explorer v3.3.
Z′ greater than 0.5 was used as passing quality control criteria for the plates. The Z′ is defined as:
1−[3*SDPositive Control+3*SDNegative Control/Absolute (MeanPositive Control−MeanNegative Control)]
The % activity measured at each of the 8 test concentrations of the test compound added either without or with a co-corrector (2 μM or 3 μM (GI-1 to GIII-36) of 3-[(2R,4R)-4-({[1-(2,2-difluoro-1,3-benzodioxol-5-yl)cyclopropyl]carbonyl}amino)-7-methoxy-3,4-dihydro-2H-chromen-2-yl]benzoic acid) was normalized to the on-plate positive control using the following formulae:
% activity (Test compound without co-corrector)=[(test compound without co-corrector response−DMSO response)/(positive control response−DMSO response)]*100
% activity (Test compound with co-corrector)=[(test compound with co-corrector response−DMSO response)/(positive control response−DMSO response)]*100
The maximum % activity achieved for the test compound either without or with a co-corrector at any tested concentration is presented in Table 3 along with the respective EC50's calculated using the following general sigmoidal curve with variable Hill slope equation (described as Model 42 in the Accelrys® Assay Explorer v3.3 software):
General sigmoidal curve with concentration, response, top, bottom, EC50 and Hill slope. This model describes a sigmoidal curve with an adjustable baseline, a. The equation can be used to fit curves where response is either increasing or decreasing with respect to the independent variable, “x”.

[1] = with co-corrector (2 μM), read-out: EC50 (with co-corrector)
[2] = without co-corrector, read-out: EC50 (without co-corrector)

SMILES	Emax (% Dual) (F508del/F508del CFTR)	EC50 (F508del/F508del CFTR)	EC50 (F508delCFTR; [1])	EC50 (F508delCFTR; [2])	Maximum % activity (without co-corrector) (F508delCFTR; without co-corrector)
COc1ccc(C)cc1[C@]1(C(=O)NS(=O)(=O)c2cccc3nc(C)ccc23)C[C@@H]1c1cnc(C(C)C)cn1 (single isomer, unassigned) [Example 64]	342 % Dual	33.7 nM	–	–	–
CCOc1cnc([C@H]2C[C@@]2(C(=O)NS(=O)(=O)c2cccc3nc(C)ccc23)c2cc(C)ccc2OC)cn1 (single isomer, unassigned) [Example 66]	253 % Dual	15.2 nM	–	–	–
CCOc1ncccc1[C@H]1C[C@@]1(C(=O)NS(=O)(=O)c1cccc2nc(C)ccc12)c1cc(C)ccc1OC (single isomer, unassigned) [Example 71]	288 % Dual	11.3 nM	–	–	–
COc1ccc([C@H]2C[C@@]2(C(=O)NS(=O)(=O)c2cccc3nc(C)ccc23)c2cc(C)ccc2OC)c(OC)n1 (single isomer, unassigned) [Example 94]	246 % Dual	7 nM	–	–	–
COc1ccc(C)cc1[C@@]1(C(=O)NS(=O)(=O)c2cccc3nc(C)ccc23)CC1c1ccc(C)nc1 (stereo in doubt) [Example 10, (1R,2S)-1-(2-methoxy-5-methylphenyl)-2-(6-methylpyridin-3-yl)-N-(2-methylquinoline-5-sulfonyl)cyclopropane-1-carboxamide]	194 % Dual	804 nM	–	–	–
COc1ccc(C)cc1[C@]1(C(=O)NS(=O)(=O)c2cccc3nc(C)ccc23)C[C@@H]1c1cnc(OC)c(C)n1 [Example 83, (1S,2S)-1-(2-methoxy-5-methylphenyl)-2-(5-methoxy-6-methylpyrazin-2-yl)-N-(2-methylquinoline-5-sulfonyl)cyclopropane-1-carboxamide]	246 % Dual	33.2 nM	–	–	–

The next molecules have a lower EC50 (F508del/F508del CFTR) than those just listed; values first:

Emax (% Dual) (F508del/F508del CFTR)	EC50 (F508del/F508del CFTR)	EC50 (F508delCFTR; [1])	EC50 (F508delCFTR; [2])	Maximum % activity (without co-corrector) (F508delCFTR; without co-corrector)	SMILES
389 % Dual	5 nM	1430 nM	2840 nM	–	COc1ccc(C)cc1[C@@]1(C(=O)NS(=O)(=O)c2cccc3nc(C)ccc23)C[C@H]1c1ccccc1 (racemic) [Example 1, rac-(1r,2s)-1-(2-methoxy-5-methylphenyl)-N-(2-methylquinoline-5-sulfonyl)-2-phenylcyclopropane-1-carboxamide]
350 % Dual	3.8 nM	–	–	–	COc1ccc(C)cc1[C@]1(C(=O)NS(=O)(=O)c2cccc3nc(C)ccc23)C[C@@H]1c1cnc(OC)c(OC)c1 [Example 104, (1S,2R)-2-(5,6-dimethoxypyridin-3-yl)-1-(2-methoxy-5-methylphenyl)-N-(2-methylquinoline-5-sulfonyl)cyclopropane-1-carboxamide]
253 % Dual	3.5 nM	187 nM	306 nM	741%	COc1ccc(C)cc1C1(C(=O)NS(=O)(=O)c2cccc3nc(C)ccc23)CC1c1ccc(C(F)(F)F)cc1 (racemic) [Example 5, rac-(1r,2s)-1-(2-methoxy-5-methylphenyl)-N-(2-methylquinoline-5-sulfonyl)-2-[4-(trifluoromethyl)phenyl]cyclopropane-1-carboxamide]
417 % Dual	1.5 nM	421 nM	489 nM	944%	COc1ccc(C)cc1[C@@]1(C(=O)NS(=O)(=O)c2cccc3nc(C)ccc23)C[C@H]1c1ccc(C)cc1 (racemic) [Example 4, rac-(1r,2s)-1-(2-methoxy-5-methylphenyl)-2-(4-methylphenyl)-N-(2-methylquinoline-5-sulfonyl)cyclopropane-1-carboxamide]
429 % Dual	1.4 nM	504 nM	844 nM	–	COc1ccc(C)cc1[C@@]1(C(=O)NS(=O)(=O)c2cccc3nc(C)ccc23)C[C@H]1c1cccc(F)c1 (racemic) [Example 8, rac-(1r,2s)-2-(3-fluorophenyl)-1-(2-methoxy-5-methylphenyl)-N-(2-methylquinoline-5-sulfonyl)cyclopropane-1-carboxamide]
381 % Dual	1.1 nM	–	1670 nM	–	COc1ccc([C@@H]2C[C@]2(C(=O)NS(=O)(=O)c2cccc3nc(C)ccc23)c2cc(C)ccc2OC)cc1 (racemic) [Example 9, rac-(1r,2s)-1-(2-methoxy-5-methylphenyl)-2-(4-methoxyphenyl)-N-(2-methylquinoline-5-sulfonyl)cyclopropane-1-carboxamide]
